Like-named read-outs stand apart in the source and are kept apart here.

Among the data in patent US20120022054A1, “NOVEL SUBSTITUTED ARYL DERIVATIVES, THEIR PROCESS OF PREPARATION AND THEIR THERAPEUTICAL USES AS ANTI-HIV AGENTS” (priority 2008, published 2012) are EC50 values, retold here.

The subject of assay [1] is Env-deleted NL4-3 vector virus pseudotyped with the VSV g envelope. Nature of the assay: microbe, parasite or virus in culture. Format: cell-based, HIV-1. Conditions: Vesicular stomatitis virus, NL43, SUP-T1, 48 h, read-out: EC50 for antiviral activity (50% inhibition of luciferase activity).
Another assay has as its system NL4-3 strain of HIV-1. Nature of the assay: Multiple cycle infection assay of CAp24 antigen production. Format: cell-based. Conditions: Human immunodeficiency virus 1, NL43, SUP-T1, 96 h, read-out: EC50 for antiviral activity (50% inhibition of CA p24 production).
[2] abbreviates: multiple cycle infection with NL4-3 virus, SupT1, MT4 or PBMC, MOI 0.01, day 4 and day −6 post-infection, threshold below 5 μM.

Turning to `CN(Cc1ccccc1N1CCOCC1)C(=O)CCCSc1ccc(O)cc1` [Example 11, 4-[(4-Hydroxyphenyl)thio]-N-methyl-N-(2-morpholin-4-ylbenzyl)butanamide], the EC50 (in assay [1]; in the assay with NL4-3 strain of HIV-1 (setting [2])) was less than 5 µM throughout.
For `CN(Cc1ccccc1-c1ccco1)C(=O)CCCn1ccc2cc(F)ccc21` [Example 122, 4-(5-fluoro-1H-indol-1-yl)-N-(2-(furan-2-yl)benzyl)-N-methylbutanamide], the EC50 (in assay [1]; with NL4-3 strain of HIV-1 (setting [2])) was less than 5 µM in each case.
Consider `COc1ccccc1CN(C)C(=S)CCCSc1ccc(O)cc1` [Example 164, 4-[(4-Hydroxyphenyl)thio]-N-(2-methoxybenzyl)-N-methylbutanethioamide], for which the EC50 (in assay [1]; in the assay on NL4-3 strain of HIV-1 (setting [2])) was less than 5 µM each time.
In the case of `CN(Cc1ccccc1N1CCN(CCN2CCOCC2)CC1)C(=O)CCCSc1ccc(O)cc1` [Example 53, 4-[(4-Hydroxyphenyl)thio]-N-methyl-N-{2-[4-(2-morpholin-4-ylethyl)piperazin-1-yl]benzyl}butanamide], the concentration for a half-maximal effect (EC50) (in assay [1]; in the assay with NL4-3 strain of HIV-1 (setting [2])) was less than 5 µM in each case.
With `CC(C)Oc1ccccc1CN(C)C(=O)CCCSc1ccc(O)cc1` [Example 41, 4-[(4-Hydroxyphenyl)thio]-N-(2-isopropoxybenzyl)-N-methylbutanamide], the EC50 (in assay [1]; in the assay on NL4-3 strain of HIV-1 (setting [2])) was less than 5 µM in each case.
Turning to `COc1ccccc1CN(C)C(=O)CCCSc1cccc(O)c1` [Example 26, 4-[(3-hydroxyphenyl)thio]-N-(2-methoxybenzyl)-N-methylbutanamide], the EC50 (in assay [1]; in the assay on NL4-3 strain of HIV-1 (setting [2])) was less than 5 µM in each case.
`CN(Cc1ccccc1OC(F)(F)F)C(=O)CCCSc1ccc(O)cc1` [Example 27, 4-[(4-hydroxyphenyl)thio]-N-methyl-N-[2-(trifluoromethoxy)benzyl]butanamide]: the EC50 (in assay [1]; with NL4-3 strain of HIV-1 (setting [2])) was less than 5 µM each time.
As for `CN(Cc1ccccc1C(F)(F)F)C(=O)CCCSc1ccc(O)cc1` [Example 15, 4-[(4-Hydroxyphenyl)thio]-N-methyl-N-[2-(trifluoromethyl)benzyl]butanamide], the EC50 (in assay [1]; in the assay with NL4-3 strain of HIV-1 (setting [2])) was less than 5 µM in each case.
As for `COc1ccc(SCCCC(=O)N(C)Cc2cc(C)ccc2OC)cc1` [Example 119, 4-[(4-methoxyphenyl)thio]-N-[2-methoxy-5-methylbenzyl]-N-methylbutanamide], the EC50 (in assay [1]; in the assay on NL4-3 strain of HIV-1 (setting [2])) was less than 5 µM throughout.
For the compound `CN(Cc1ccccc1-c1ccco1)C(=O)CCCSc1ccc(F)cc1` [Example 95, 4-[(4-fluorophenyl)thio]-N-[2-(2-furyl)benzyl]-N-methylbutanamide], the EC50 (in assay [1]; with NL4-3 strain of HIV-1 (setting [2])) was less than 5 µM throughout.
For the compound `COCc1ccccc1CN(C)C(=O)CCCSc1ccc(O)cc1` [Example 65, 4-[(4-Hydroxyphenyl)thio]-N-[2-(methoxymethyl)benzyl]-N-methylbutanamide], the EC50 (in assay [1]; in the assay on NL4-3 strain of HIV-1 (setting [2])) was less than 5 µM in each case.
`COc1ccc(F)cc1CN(C)C(=O)CCCSc1ccc(C)cc1` [Example 111, N-(5-fluoro-2-methoxybenzyl)-N-methyl-4-[(4-methylphenyl)thio]butanamide]: the EC50 (in assay [1]; with NL4-3 strain of HIV-1 (setting [2])) was less than 5 µM in each case.
In the case of `COc1ccccc1CN(C)C(=O)CCCC(=O)c1ccc(F)cc1` [Example 56, 5-(4-Fluorophenyl)-N-(2-methoxybenzyl)-N-methyl-5-oxopentanamide], the EC50 (in assay [1]; in the assay with NL4-3 strain of HIV-1 (setting [2])) was less than 5 µM throughout.
Turning to `COc1ccccc1CN(C)C(=O)CCCSc1ccc(F)c(Cl)c1` [Example 141, 4-[(3-Chloro-4-fluorophenyl)thio]-N-(2-methoxybenzyl)-N-methylbutanamide], the EC50 (in assay [1]; in the assay on NL4-3 strain of HIV-1 (setting [2])) was less than 5 µM in each case.
On to `COC(=O)c1ccc(SCCCC(=O)N(C)Cc2cc(F)ccc2OC)cc1` [Example 147, Methyl 4-({4-[(5-fluoro-2-methoxybenzyl)methylamino]-4-oxobutyl}thio)benzoate], for which the EC50 (in assay [1]; in the assay with NL4-3 strain of HIV-1 (setting [2])) was less than 5 µM throughout.
On to `C=CCOc1ccccc1CN(C)C(=O)CCCSc1ccc(F)cc1` [Example 90, N-[2-(Allyloxy)benzyl]-4-[(4-fluorophenyl)thio]-N-methylbutanamide], for which the EC50 (in assay [1]; in the assay on NL4-3 strain of HIV-1 (setting [2])) was less than 5 µM each time.
Take `COc1c(C)cccc1CN(C)C(=O)CCCSc1ccc(O)cc1` [Example 69, 4-[(4-Hydroxyphenyl)thio]-N-(2-methoxy-3-methylbenzyl)-N-methylbutanamide]: the EC50 (in assay [1]; in the assay on NL4-3 strain of HIV-1 (setting [2])) was less than 5 µM in each case.
For the compound `CN1CCN(c2ccccc2CN(C)C(=O)CCCSc2ccc(O)cc2)CC1` [Example 13, 4-[(4-Hydroxyphenyl)thio]-N-methyl-N-[2-(4-methylpiperazin-1-yl)benzyl]-butanamide], the EC50 (in assay [1]; with NL4-3 strain of HIV-1 (setting [2])) was less than 5 µM each time.
Regarding `CN(Cc1ccccc1N1CCN(CCO)CC1)C(=O)CCCSc1ccc(O)cc1` [Example 73, N-{2-[4-(2-hydroxyethyl)piperazin-1-yl]benzyl}-4-[(4-hydroxyphenyl)thio]-N-methylbutanamide], the EC50 (in assay [1]; with NL4-3 strain of HIV-1 (setting [2])) was less than 5 µM throughout.
For the compound `COc1ccc(SCCCC(=O)N(C)Cc2cc(C)ccc2N2CCOCC2)cc1` [Example 124, 4-[(4-methoxyphenyl)thio]-N-[5-methyl-2-(morpholin-4-yl)benzyl]-N-methylbutanamide], the EC50 (in assay [1]; in the assay with NL4-3 strain of HIV-1 (setting [2])) was less than 5 µM throughout.
On to `CN(Cc1ccccc1C1=CCNCC1)C(=O)CCCSc1ccc(O)cc1` [Example 168, 4-[(4-Hydroxyphenyl)thio]-N-methyl-N-[2-(1,2,3,6-tetrahydropyridin-4-yl)benzyl]butanamide], for which the EC50 (in assay [1]; with NL4-3 strain of HIV-1) was less than 5 µM throughout.
